Data as given in patent US20190001106A1, “THERAPEUTIC DELIVERY DEVICE” (priority 2013, published 2019).

Assay: preservation of doxorubicin efficacy in the implanted construct
Assay type: in vivo
Settings: in STID-Dox-PLGA85/15 construct, 3 weeks inside an animal body about 37C

efficacy of doxorubicin after residence in the construct: efficacy is still preserved
SMILES: COc1cccc2c1C(=O)c1c(O)c3c(c(O)c1C2=O)C[C@@](O)(C(=O)CO)C[C@@H]3O[C@H]1C[C@H](N)[C@H](O)[C@H](C)O1 [doxorubicin, Doxorubicin]
